Measured values from patent US12485123B2, “1H-pyrazolo[4,3-d]pyrimidine compounds as toll-like receptor 7 (TLR7) agonists” (BRISTOL-MYERS SQUIBB COMPANY, priority 2020, dated 2025).
pEC50: −log10 of the molar value.

Assays:
CD69 = test: Induction of CD69 in human whole blood; assay type: cell-based; details: 17 hrs incubation, CD69 surface staining, 100% set to 1 uM of resiquimod, average where assay repeated, read-out: hWB CD69 EC50
Description: Induction of Type I Interferon Genes (MX-1) and CD69 in Human Blood
The induction of Type I interferon (IFN) MX-1 genes and the B-cell activation marker CD69 are downstream events that occur upon activation of the TLR7 pathway. The following is a human whole blood assay that measures their induction in response to a TLR7 agonist.
Heparinized human whole blood was harvested from human subjects and treated with test TLR7 agonist compounds at 1 mM. The blood was diluted with RPMI 1640 media and Echo was used to predot 10 nL per well giving a final concentration of 1 uM (10 nL in 10 uL of blood). After mixing on a shaker for 30 sec, the plates were covered and placed in a 37° C. chamber for o/n=17 hrs. Fixing/lysis buffer was prepared (5×→1× in H2O, warm at 37° C.; Cat #BD 558049) and kept the perm buffer (on ice) for later use.
For surface markers staining (CD69): prepared surface Abs: 0.045 ul hCD14-FITC (ThermoFisher Cat #MHCD1401)+0.6 ul hCD19-ef450 (ThermoFisher Cat #48-0198-42)+1.5 ul hCD69-PE (cat #BD555531)+0.855 ul FACS buffer. Added 3 ul/well, spin 1000 rpm for 1 min and mixed on shaker for 30 sec, put on ice for 30 min. Stop stimulation after 30 minutes with 70 uL of prewarmed 1× fix/lysis buffer and use Feliex mate to resuspend (15 times, change tips for each plate) and incubate at 37 C for 10 minutes.
Centrifuge at 2000 rpm for 5 minutes aspirate with HCS plate washer, mix on shaker for 30 sec and then wash with 70 uL in dPBS and pelleted 2×s (2000 rpm for 5 min) and 50 ul wash in FACS buffer pelleted 1×s (2000 rpm for 5 min). Mix on shaker for 30 sec. For Intracellular markers staining (MX-1): Add 50 ul of BD Perm buffer III and mix on shaker for 30 sec. Incubate on ice for 30 minutes (in the dark). Wash with 50 uL of FACS buffer 2× (spin @2300 rpm×5 min after perm) followed by mixing on shaker for 30 sec. Resuspended in 20 ul of FACS buffer containing MX1 antibody ( )(4812)-Alexa 647: Novus Biologicals #NBP2-43704AF647) 20 ul FACS bf+0.8 ul hIgG+0.04 ul MX-1. Spin 1000 rpm for 1 min, mix on shaker for 30 se and the samples were incubated at RT in the dark for 45 minutes followed by washing 2×FACS buffer (spin @2300 rpm×5 min after perm). Resuspend 20 ul (35 uL total per well) of FACS buffer and cover with foil and place in 4° C. to read the following day. Plates were read on iQuePlus. The results were loaded into toolset and […] curves are generated in curve master. The y-axis 100% is set to 1 uM of resiquimod.

human TLR7 = biological target: T1, human TLR7 (Homo sapiens, UniProt Q9NYK1); test: Human TLR7 agonist activity reporter assay (HEK-Blue TLR7 cells, SEAP reporter); assay type: cell-based; details: human TLR7 (hTLR7) reporter assay, SEAP readout after 18 h, average where assay repeated, read-out: TLR7 Agonism EC50
T1 construct: host or cells: HEK-Blue TLR7 cells (engineered human embryonic kidney cells)
T1 sequence (Q9NYK1 27-1049): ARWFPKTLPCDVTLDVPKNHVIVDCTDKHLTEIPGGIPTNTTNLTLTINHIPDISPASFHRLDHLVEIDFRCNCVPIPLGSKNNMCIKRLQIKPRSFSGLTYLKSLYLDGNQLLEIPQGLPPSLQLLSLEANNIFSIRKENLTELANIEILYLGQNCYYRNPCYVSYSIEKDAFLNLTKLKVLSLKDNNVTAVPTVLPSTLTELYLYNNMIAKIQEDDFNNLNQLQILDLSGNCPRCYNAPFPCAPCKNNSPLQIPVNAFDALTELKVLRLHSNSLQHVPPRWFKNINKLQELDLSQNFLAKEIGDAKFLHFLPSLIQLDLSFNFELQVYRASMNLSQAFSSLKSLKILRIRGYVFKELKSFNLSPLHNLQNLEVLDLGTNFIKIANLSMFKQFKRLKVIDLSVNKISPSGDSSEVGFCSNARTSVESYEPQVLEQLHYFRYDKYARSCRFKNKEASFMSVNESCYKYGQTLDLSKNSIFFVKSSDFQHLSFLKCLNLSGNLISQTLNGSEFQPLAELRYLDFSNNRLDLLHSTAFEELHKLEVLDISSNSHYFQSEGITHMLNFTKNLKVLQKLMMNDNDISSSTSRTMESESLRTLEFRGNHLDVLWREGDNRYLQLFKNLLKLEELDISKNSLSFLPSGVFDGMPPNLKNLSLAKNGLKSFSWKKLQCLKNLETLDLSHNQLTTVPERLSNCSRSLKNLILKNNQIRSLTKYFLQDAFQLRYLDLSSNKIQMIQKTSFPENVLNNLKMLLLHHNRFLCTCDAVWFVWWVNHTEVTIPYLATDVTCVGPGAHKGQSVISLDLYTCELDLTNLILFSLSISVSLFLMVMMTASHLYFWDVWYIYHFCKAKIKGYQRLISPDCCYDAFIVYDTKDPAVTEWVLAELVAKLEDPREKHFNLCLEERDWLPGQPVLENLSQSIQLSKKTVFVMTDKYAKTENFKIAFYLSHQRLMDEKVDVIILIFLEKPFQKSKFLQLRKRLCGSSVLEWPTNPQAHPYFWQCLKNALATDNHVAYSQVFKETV
Description: Human TLR7 Agonist Activity Assay
This procedure describes a method for assaying human TLR7 (hTLR7) agonist activity of the compounds disclosed in this specification.
HEK-Blue™ TLR7 cells were added to each well of a 384-well tissue-culture plate (15,000 cells per well) and incubated 16-18 h at 37° C., 5% CO2. Compounds (100 nl) were dispensed into wells containing the HEK-Blue™ TLR cells and the treated cells were incubated at 37° C., 5% CO2. After 18 h treatment ten microliters of freshly-prepared Quanti-Blue™ reagent (Invivogen) was added to each well, incubated for 30 min (37° C., 5% CO2) and SEAP levels measured using an Envision plate reader (OD=620 nm).

Row | Structure (SMILES) | pEC50 (CD69) | pEC50 (human TLR7)
1 | Nc1nc(NCC2CC3(CC3)C2)c2c(cnn2Cc2ccc(C(=O)N3CCN(CCO)CC3)c3cccnc23)n1 [Compound 115, 2-{4-[8-({5-amino-7-[({spiro[2.3]hexan-5-yl}methyl)amino]-1H-pyrazolo[4,3-d]pyrimidin-1-yl}methyl)quinoline-5-carbonyl]piperazin-1-yl}ethan-1-ol] | 6.12 | 6.33
2 | CCCCNc1nc(N)nc2cnn(Cc3ccc(CNC4CCC4)c4cccnc34)c12 [Compound 101, N7-butyl-1-({5-[(cyclobutylamino)methyl]quinolin-8-yl}methyl)-1H-pyrazolo[4,3-d]pyrimidine-5,7-diamine] | 7.33 | 7.03
3 | CCC[C@@H](CCO)Nc1nc(N)nc2cnn(Cc3ccc(CNC4CCC4)c4cccnc34)c12 [Compound 103, (3S)-3-{[5-amino-1-({5-[(cyclobutylamino)methyl]quinolin-8-yl}methyl)-1H-pyrazolo[4,3-d]pyrimidin-7-yl]amino}hexan-1-ol] | 7.97 | 7.86
4 | CCC[C@@H](CCO)Nc1nc(N)nc2cnn(Cc3ccc(C(=O)N4CCNC(=O)C4)c4cccnc34)c12 [Compound 118, 4-{8-[(5-amino-7-{[(3S)-1-hydroxyhexan-3-yl]amino}-1H-pyrazolo[4,3-d]pyrimidin-1-yl)methyl]quinoline-5-carbonyl}piperazin-2-one] | 6.68 | 6.51
5 | CCC[C@@H](CCO)Nc1nc(N)nc2cnn(Cc3ccc(CN4CC(OC)C4)c4cccnc34)c12 [Compound 102, (3S)-3-{[5-amino-1-({5-[(3-methoxyazetidin-1-yl)methyl]quinolin-8-yl}methyl)-1H-pyrazolo[4,3-d]pyrimidin-7-yl]amino}hexan-1-ol] | 7.91 | 7.51
6 | CCC[C@@H](CCO)Nc1nc(N)nc2cnn(Cc3cccc4cccnc34)c12 [Compound 110, (3S)-3-({5-amino-1-[(quinolin-8-yl)methyl]-1H-pyrazolo[4,3-d]pyrimidin-7-yl}amino)hexan-1-ol] | 6.14 | 6.54
7 | CN1CCC(NC(=O)c2ccc(Cn3ncc4nc(N)nc(NCC5CC6(CC6)C5)c43)c3ncccc23)CC1 [Compound 116, 8-({5-amino-7-[({spiro[2.3]hexan-5-yl}methyl)amino]-1H-pyrazolo[4,3-d]pyrimidin-1-yl}methyl)-N-(1-methylpiperidin-4-yl)quinoline-5-carboxamide] | 6.54 | 6.55
8 | CCCCNc1nc(N)nc2cnn(Cc3ccc(CNC4CCOCC4)c4cccnc34)c12 [Compound 109, N7-butyl-1-[(5-{[(oxan-4-yl)amino]methyl}quinolin-8-yl)methyl]-1H-pyrazolo[4,3-d]pyrimidine-5,7-diamine] | 7.38 | 7.26

The remaining lines, values ahead:

Row | pEC50 (CD69) | pEC50 (human TLR7) | Structure (SMILES)
9 | 7.79 | 8.26 | CCC[C@@H](CCO)Nc1nc(N)nc2cnn(Cc3ccc(CN4CCN(CCO)CC4)c4cccnc34)c12 [Compound 139, (3S)-3-({5-amino-1-[(5-{[4-(2-hydroxyethyl)piperazin-1-yl]methyl}quinolin-8-yl)methyl]-1H-pyrazolo[4,3-d]pyrimidin-7-yl}amino)hexan-1-ol]
10 | 7.27 | 6.51 | Cc1cc(CNc2nc(N)nc3cnn(Cc4ccc(C(=O)NC5CCN(C)CC5)c5cccnc45)c23)no1 [Compound 122, 8-[(5-amino-7-{[(5-methyl-1,2-oxazol-3-yl)methyl]amino}-1H-pyrazolo[4,3-d]pyrimidin-1-yl)methyl]-N-(1-methylpiperidin-4-yl)quinoline-5-carboxamide]
11 | 7.68 | 8.08 | CCC[C@@H](CCO)Nc1nc(N)nc2cnn(Cc3ccc(CN4C[C@H]5CN(C)C[C@H]5C4)c4cccnc34)c12 [Compound 140, (3S)-3-({1-[(5-{[(3aR,6aS)-5-methyl-octahydropyrrolo[3,4-c]pyrrol-2-yl]methyl}quinolin-8-yl)methyl]-5-amino-1H-pyrazolo[4,3-d]pyrimidin-7-yl}amino)hexan-1-ol]
12 | 7.08 | 7.47 | CCC[C@@H](CCO)Nc1nc(N)nc2cnn(Cc3ccc(C(=O)N4C[C@H]5CN(C)C[C@H]5C4)c4cccnc34)c12 [Compound 125, (3S)-3-{[1-([5-[(3aR,6aS)-5-methyl-octahydropyrrolo[3,4-c]pyrrole-2-carbonyl]quinolin-8-yl}methyl)-5-amino-1H-pyrazolo[4,3-d]pyrimidin-7-yl]amino}hexan-1-ol]
13 | 7.10 | 6.90 | CCC[C@@H](CCO)Nc1nc(N)nc2cnn(Cc3ccc(C(=O)N4CC(O)C4)c4cccnc34)c12 [Compound 135, 1-{8-[(5-amino-7-{[(3S)-1-hydroxyhexan-3-yl]amino}-1H-pyrazolo[4,3-d]pyrimidin-1-yl)methyl]quinoline-5-carbonyl}azetidin-3-ol]
14 | 7.04 | 7.26 | CCC[C@@H](CCO)Nc1nc(N)nc2cnn(Cc3ccc(C(=O)N4CC5(COC5)C4)c4cccnc34)c12 [Compound 127, (3S)-3-({5-amino-1-[(5-{2-oxa-6-azaspiro[3.3]heptane-6-carbonyl}quinolin-8-yl)methyl]-1H-pyrazolo[4,3-d]pyrimidin-7-yl}amino)hexan-1-ol]
15 | 6.00 | 6.05 | CCC[C@@H](CCO)Nc1nc(N)nc2c(C)nn(Cc3ccc(C(=O)N4CCN(CCO)CC4)c4cccnc34)c12 [Compound 120, (3S)-3-{[5-amino-1-({5-[4-(2-hydroxyethyl)piperazine-1-carbonyl]quinolin-8-yl}methyl)-3-methyl-1H-pyrazolo[4,3-d]pyrimidin-7-yl]amino}hexan-1-ol]
16 | 6.61 | 6.36 | CCC[C@@H](CCO)Nc1nc(N)nc2cnn(Cc3ccc(C(=O)N4CC5(CNC5)C4)c4cccnc34)c12 [Compound 124, (3S)-3-({5-amino-1-[(5-{2,6-diazaspiro[3.3]heptane-2-carbonyl}quinolin-8-yl)methyl]-1H-pyrazolo[4,3-d]pyrimidin-7-yl}amino)hexan-1-ol]
